Reference: patent US20260294885A1, “TREATMENT OF INFLAMMATORY CONDITIONS COMPRISING IMU-856” (IMMUNIC AG, priority 2023, published 2026)
Entries after “also recorded” stand apart in the source; their conditions may differ. Read-outs that look alike come from different tables or passages of the source.

Tests used:
[1] = test system: patients with celiac disease; assay: Nutrient absorption (vitamin B12, zinc, ferritin), Part C; type: in vivo, human; conditions: for increase in vitamin B12 levels: over the course of the trial; for mean increase in vitamin B12 levels / mean increase in zinc levels: baseline to Day 29
Protocol: In Part A, healthy subjects were randomised to single ascending doses of IMU-856 (10 mg to 160 mg) or placebo. In Part B healthy subjects were randomised to multiple once-daily doses of IMU-856 (40, 80, and 160 mg) or placebo for 14 days. Part C randomised patients with celiac disease who were on a gluten-free diet to multiple once-daily doses of IMU-856 (80 mg and 160 mg) or placebo for 28 days; a once-daily gluten challenge (6 g) was introduced on Day 14 and ended on Day 28. 71 healthy subjects were enrolled in Part A and B (N=19 placebo and N=52 IMU-856) and 43 patients with CelD in Part C (N=14 placebo; N=14 for 80 mg, and N=15 for 160 mg). In Parts A and B, treatment-emergent adverse events (TEAEs) occurred in 24 (73%) and 15 (79%) of subjects receiving any dose of IMU-856 compared to 6 (50%) and 5 (71%) with placebo, respectively. […] In Part C, the most common adverse events with any dose of IMU-856 by preferred term were headache (13 [45%]), nausea (9 [31%]), diarrhoea (8 [28%]), and abdominal distension (7 [24%]). […] In Part C, the mean change in villous height from baseline to Day 29 with 80 mg and 160 mg was −20.9±34.8 μm, and −22.5±51.1 μm, respectively, and −60.3±52.2 μm with placebo. […] Mean change in plasma citrulline increased with 80 mg and 160 mg from baseline to Day 14 (2.4±6.2 and 6.1±5.9 μmol/L, respectively) and from baseline to Day 29 (2.8±7.6 and 2.2±5.3 μmol/L, respectively), but not with placebo (−2.7±5.6 and −4.0±6.5 μmol/L). […] Mean increase in zinc levels from baseline to Day 29 with 80 mg and 160 mg were 0.3±1.4 and 0.9±2.1 μmol/L compared to a mean decrease in placebo (−0.9±2.1 μmol/L). Gluten-induced symptoms were also attenuated by IMU-856. […]

SIRT6 = SIRT6 (Homo sapiens, UniProt Q8N6T7); assay: Inhibition of SIRT6 deacetylation of acetylated H3K56, in vitro cell free; type: biochemical
[2] = Pharmacokinetics in celiac disease patients, Part C; type: in vivo, human; conditions: for Cmax at 192 h / Tmax at 192 h / AUC(0-t) at 192 h: human, in vivo, Day 8, mean; for AUC(0-t) at 192 h: read-out: AUC0-t last
Protocol: FIG. 1 illustrates the flow chart of part C in celiac disease (CelD) designed as proof-of-concept study with a gluten challenge trial. Part C was planned to include a well-controlled celiac disease patient population: The patients were 100% seronegative, indicating absence of ongoing substantial gluten exposure and was performed at sites in Australia and New Zealand. Part C was designed to assess safety, tolerability and pharmacokinetics of IMU-856 and measured also histologic changes, blood biomarkers, nutrient uptake and disease-related symptoms.

[3] = test system: colorectal adenocarcinoma-2 (Caco-2) cells; assay: TEER recovery across a Caco-2 monolayer following inflammation with TNF-α or IL-6; type: cell-based, human
Description: In one TEER model, tight junction (TJ)-related proteins were investigated, and a normalisation of TJ proteins (claudin (Cldn)-1 and claudin-2) was observed.
CaCo2 cell line is derived from human epithelial cells from the colon. They are frequently used to mimic intestinal barrier function to either look at permeability of drugs or to look at is functional resistance. For the present experiment, the CaCo2 cells were used to mimic the […] LEFT OUT] and investigate the effect of IMU-856 on this by measuring the electrical transepithelial resistance (TEER). […] For this CaCo2 cells, cultivated in a 6-well trans well plate on top of the membrane that has small pores that prevent the cells from going through but allow molecules and nutrients to pass. […] Then, cells were washed and fresh medium with vehicle or IMU-856 was given. TEER was measured before and after challenge at different time points. For correct measurement, the shorter electrode is inserted into the transwell chamber (without touching the cells), and the longer electrode is inserted in the outer well.

DSS-induced colitis = assay: Therapeutic DSS-induced colitis mouse model (Example 3); type: in vivo, male C57BL/6 mice; conditions: 1 mg/kg per oral gavage once daily for 5 days from disease onset
Protocol: For this model, which is an often-used in vivo model for IBD, male C57BL/6 mice were treated with 2.8% DSS in drinking water for 5 days. Treatment with either vehicle (PEG400), 60 mg/kg sulfasalazine (positive control) or 1 mg/kg IMU-856 was given at disease onset (day 4 after start of DSS treatment) per oral gavage once daily for 5 days. Diarrhea score (normal consistency; soft; pasty, unshaped, not sticking to anus; diarrhea, sticking to anus; diarrhea with macroscopic bleeding) was assessed daily.
At the end of the study, mice were sacrificed and the colon was collected. Colon histology score consisting of an architecture score (0-3) and an infiltration score (0-3) was assessed based on hematoxylin and eosin-stained tissues slices.

[4] = test system: sirtuin 6 protein (SIRT6); assay: SIRT6 protein stabilization
CaCo2 cells = assay: In vitro intestinal barrier function model (TEER, Example 2); type: cell-based, human; conditions: compared to vehicle control, after 4 h chemical challenge
Description: CaCo2 cell line is derived from human epithelial cells from the colon. They are frequently used to mimic intestinal barrier function to either look at permeability of drugs or to look at is functional resistance. For the present experiment, the CaCo2 cells were used to mimic the loss of its barrier function upon challenging the cells with [COMPOUND LEFT OUT] sulfonic acid [COMPOUND LEFT OUT] and investigate the effect of IMU-856 on this by measuring the electrical transepithelial resistance (TEER). […] For this CaCo2 cells, cultivated in a 6-well trans well plate on top of the membrane that has small pores that prevent the cells from going through but allow molecules and nutrients to pass. After 3 weeks, when the TEER is stable, the monolayer is challenged with 0.25% [COMPOUND LEFT OUT] stimulation for 4 h. Then, cells were washed and fresh medium with vehicle or IMU-856 was given. TEER was measured before and after challenge at different time points. For correct measurement, the shorter electrode is inserted into the transwell chamber (without touching the cells), and the longer electrode is inserted in the outer well.

Sequence of SIRT6 (Q8N6T7 whole entry): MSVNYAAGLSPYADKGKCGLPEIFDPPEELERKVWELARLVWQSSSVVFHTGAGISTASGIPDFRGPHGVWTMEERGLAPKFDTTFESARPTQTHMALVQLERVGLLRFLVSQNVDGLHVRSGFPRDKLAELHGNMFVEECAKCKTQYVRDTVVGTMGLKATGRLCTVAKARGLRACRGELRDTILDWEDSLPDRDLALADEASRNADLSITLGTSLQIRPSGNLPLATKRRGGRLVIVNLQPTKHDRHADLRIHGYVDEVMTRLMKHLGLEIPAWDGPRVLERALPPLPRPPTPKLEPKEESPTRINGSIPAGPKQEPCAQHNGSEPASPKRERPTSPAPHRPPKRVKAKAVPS

## Cn1c(COc2cc(C(F)(F)F)ccn2)nnc1[C@H]1CC[C@H](c2cnn([C@H]3CC[C@H](N4CC5(CCO5)C4)CC3)c2)CC1 [IMU-856, 6-(trans-4-(4-(trans-4-(4-methyl-5-(((4-(trifluoromethyl)pyridin-2-yl)oxy)methyl)-4H-1,2,4-triazol-3-yl)cyclohexyl)-1H-pyrazol-1-yl)cyclohexyl)-1-oxa-6-azaspiro[3.3]heptane]
[1]; 80 mg (N=11)
  increase in vitamin B12 levels: 45.8 pmol/L
[1]; 80 mg
  mean increase in vitamin B12 levels: 45.8 ± 94.4 pmol/L
  mean increase in zinc levels: 0.3 ± 1.4 µmol/L
[1]; 160 mg (N=13)
  increase in vitamin B12 levels: 74.2 pmol/L
[1]; 160 mg
  mean increase in vitamin B12 levels: 74.2 ± 99.9 pmol/L
  mean increase in zinc levels: 0.9 ± 2.1 µmol/L
[1]; Baseline to Day 29
  gluten-induced iron malabsorption (ferritin levels): ameliorates the gluten-induced iron malabsorption; also recorded: decreased to a lesser extent
[1]; in words
  nutrient absorption (vitamin B12): enhances nutrient absorption in a dose-dependent manner
  nutrient absorption (zinc): enhances nutrient absorption in a dose-dependent manner; also recorded: A similar responses to treatment was observed for zinc
SIRT6
  inhibition of deacetylase activity of SIRT6: selective inhibitor of the deacetylase activity
SIRT6; in vitro cell free system
  deacetylation of H3K56: prevents the deacetylation
[2]; Part C
  achievement of steady state: fast achievement of steady state
  dose linearity of plasma Cmax and AUC: linear pharmacokinetics with dose-proportional increase
  mean trough levels / exposure over dosing period: constant exposure within the whole dosing period
[2]; IMU-856 80 mg
  Cmax at 192 h: 354 ng/mL
  Tmax at 192 h: 1.9 h
  AUC(0-t) at 192 h: 1570 ng·h/mL
[2]; IMU-856 160 mg
  Cmax at 192 h: 766 ng/mL
  Tmax at 192 h: 1.5 h
  AUC(0-t) at 192 h: 3610 ng·h/mL
[3]; following inflammation with IL-6
  recovery of TEER: significantly accelerates the recovery
[3]; following inflammation with TNF-α
  recovery of TEER: significantly accelerates the recovery
DSS-induced colitis
  colon histology score: reduction in the histology score
  diarrhea score: improvement of the diarrhea score which was similar or even better than the positive control
[4]
  stabilization of sirtuin 6 protein: stabilizer
CaCo2 cells
  TEER: higher TEER
  TEER recovery rate: higher recovery rate
